Results taken from patent US10414775B2 (Merck Sharp & Dohme Corp., priority 2016, dated 2019).

Biological target: T1, Human CYP8B1 (Homo sapiens, UniProt Q9UNU6)
T1 construct: tissue Xenotech; host or cells: human liver microsomes
T1 sequence (Q9UNU6 1-501): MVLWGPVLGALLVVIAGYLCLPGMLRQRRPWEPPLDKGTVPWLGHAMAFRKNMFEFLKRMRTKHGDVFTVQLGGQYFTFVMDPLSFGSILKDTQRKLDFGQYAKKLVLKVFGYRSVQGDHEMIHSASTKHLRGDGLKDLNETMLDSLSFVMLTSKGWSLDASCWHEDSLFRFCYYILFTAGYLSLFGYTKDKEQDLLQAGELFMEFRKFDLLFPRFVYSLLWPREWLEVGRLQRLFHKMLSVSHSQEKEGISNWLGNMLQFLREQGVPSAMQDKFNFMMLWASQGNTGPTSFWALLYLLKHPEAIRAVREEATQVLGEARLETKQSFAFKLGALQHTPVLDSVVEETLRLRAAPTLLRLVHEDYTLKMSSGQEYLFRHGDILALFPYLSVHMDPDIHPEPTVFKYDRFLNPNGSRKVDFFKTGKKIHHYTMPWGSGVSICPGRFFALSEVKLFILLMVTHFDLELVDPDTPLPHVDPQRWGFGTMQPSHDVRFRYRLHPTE
Assay: Human Cyp8B1 Liver Microsome Assay
Assay type: biochemical
Settings: human liver microsomes; substrate 7α-hydroxy-4-cholesten-3-one, NADPH; 30 min pre-incubation, 45 min reaction; RapidFire MS readout
Method: Human Cyp8B1 Liver Microsome Assay To a 384 well polypropylene plate (Corning 3656), 250 nl of inhibitor in 100% DMSO (1.25% final DMSO concentration) was pre-plated using an Echo liquid handler (Labcyte Inc.). Human liver microsomes (Xenotech) were diluted in of 0.1 M phosphate buffer, pH 7.4, at a concentration of 65 μg/ml and 15 μL was added to the 384 well plate. The plates were incubated at ambient room temperature for 30 minutes. After pre-incubation with inhibitor, the reaction was initiated by adding 5 μl of substrate solution (4.0 μM 7α-hydroxy-4-cholesten-3-one(Toronto Research Chemicals), 2 mM of NADPH (Sigma), 0.1 M phosphate buffer (pH 7.4). The reaction was carried out for 45 minutes at ambient room temperature and was quenched by the addition of 50 μl of acetonitrile+0.1% vol/vol formic acid (FA)+300 nM 7α-hydroxy-4-cholesten-3-one-d7 (Toronto Research Chemicals). The plates were sealed and centrifuged at 3000 rpm for 5 minutes. Plates were loaded onto the Agilent RapidFire RF300 HTMS system, wherein samples were sipped for 600 ms, and the sip sensor detection signals the diversion of sample from the loop onto a C4 solid phase extraction (SPE) cartridge, where salts are washed off for 2500 ms with a mobile phase of water with 0.1% vol/vol FA at a flow rate of 1.5 ml/min. The column path is switched, and the sample is eluted off the cartridge and flowed into the mass spectrometer for 3000 ms with a mobile phase of acetonitrile and 0.1% vol/vol FA at a flow rate of 1.25 ml/min. The aspirator tip was washed separately with water and acetonitrile between sample aspirations (each for 600 ms) to minimize carryover contamination. Mass spectrometry was carried out using a Sciex API4000 triple quadrupole mass spectrometer (Applied Biosystems, Concord, ON, Canada) equipped with electrospray ionization (ESI) operated in the positive-ion mode. The product 7α, 12α-dihydroxy-4-cholesten-3-one and internal standard 7α-hydroxy-4-cholsten-3-one-d7 were detected using multiple reaction monitoring (MRM) with Q1/Q3 transitions at m/z 417.3 to 381.3 and m/z 408.3 to 390.3, respectively, with a dwell time of 100 ms and a collision energy of 24 V for each transition. The mass spectrometer used an ESI voltage of 5000 V and a source temperature of 650° C. Extracted ion chromatograms for each transition were integrated and processed using the RapidFire Integrator software. The data for each well were normalized by monitoring product conversion with the ratio of AUCproduct/(AUCinternal standard). The data was then fitted to a four parameter logistic fit using ActivityBase Software to calculate an IC50 of the inhibitor.

Row | IC50 [nM] | SMILES
1 | 3.5 | C[C@@H]1CN(c2ccnc3ccc(Cl)cc23)CC[C@@H]1C(=O)N1CCn2c(nnc2C(F)(F)F)C1 (single isomer, unassigned) [Example 11a]
2 | 1180 | C[C@H]1CN(c2ccnc3ccc(Cl)cc23)CC[C@H]1C(=O)N1CCn2c(nnc2C(F)(F)F)C1 (single isomer, unassigned) [Example 11b]
3 | 0.34 | C[C@H](O)c1ccc2c(N3CC[C@H](C(=O)N4CCn5c(nnc5C(F)(F)F)C4)[C@H](C)C3)c(Cl)cnc2c1 (single isomer, unassigned) [Example 44a]
4 | 1.2 | C[C@@H]1CN(c2c(Cl)cnc3cc([C@@H](C)O)ccc23)CC[C@@H]1C(=O)N1CCn2c(nnc2C(F)(F)F)C1 (single isomer, unassigned) [Example 44b]
5 | 3680 | CCOC(=O)c1cnc2ccc(F)cc2c1N1CC[C@H](C(=O)N2CCn3c(nnc3C(F)(F)F)C2)[C@H](C)C1 [Example 1, ethyl 6-fluoro-4-[(3S,4S)-3-methyl-4-{[3-(trifluoromethyl)-5,6-dihydro[1,2,4]triazolo[4,3-a]pyrazin-7(8H)-yl]carbonyl}piperidin-1-yl]quinoline-3-carboxylate]
6 | 18 | C[C@@H]1CN(c2ccnc3cc(Cl)cnc23)CC[C@@H]1C(=O)N1CCn2c(nnc2C(F)(F)F)C1 [Example 2, ((3S,4S)-1-(7-chloro-1,5-naphthyridin-4-yl)-3-methylpiperidin-4-yl)(3-(trifluoromethyl)-5,6-dihydro-[1,2,4]triazolo[4,3-a]pyrazin-7(8H)-yl)methanone]
7 | 0.2 | COc1ccc2c(N3CC[C@H](C(=O)N4CCn5c(nnc5C(F)(F)F)C4)[C@H](C)C3)c(Cl)cnc2c1 [Example 3, ((3S,4S)-1-(3-chloro-7-methoxyquinolin-4-yl)-3-methylpiperidin-4-yl)(3-(trifluoromethyl)-5,6-dihydro-[1,2,4]triazolo[4,3-a]pyrazin-7(8H)-yl)methanone]
8 | 0.6 | C[C@@H]1CN(c2c(Cl)cnc3cc(F)ccc23)CC[C@@H]1C(=O)N1CCn2c(nnc2C(F)(F)F)C1 [Example 4, ((3S,4S)-1-(3-chloro-7-fluoroquinolin-4-yl)-3-methylpiperidin-4-yl)(3-(trifluoromethyl)-5,6-dihydro-[1,2,4]triazolo[4,3-a]pyrazin-7(8H)-yl)methanone]
9 | 1 | C[C@@H]1CN(c2c(C(F)(F)F)cnc3ccccc23)CC[C@@H]1C(=O)N1CCn2c(nnc2C(F)(F)F)C1 [Example 5, ((3S,4S)-3-methyl-1-(3-(trifluoromethyl)quinolin-4-yl)piperidin-4-yl)(3-(trifluoromethyl)-5,6-dihydro-[1,2,4]triazolo[4,3-a]pyrazin-7(8H)-yl)methanone]
10 | 0.9 | C[C@@H]1CN(c2c(Cl)cnc3c(F)cccc23)CC[C@@H]1C(=O)N1CCn2c(nnc2C(F)(F)F)C1 [Example 6, ((3S,4S)-1-(3-chloro-8-fluoroquinolin-4-yl)-3-methylpiperidin-4-yl)(3-(trifluoromethyl)-5,6-dihydro-[1,2,4]triazolo[4,3-a]pyrazin-7(8H)-yl)methanone]
11 | 0.7 | C[C@@H]1CN(c2c(C(F)F)cnc3c(F)c(Cl)ccc23)CC[C@@H]1C(=O)N1CCn2c(nnc2C(F)(F)F)C1 [Example 7, ((3S,4S)-1-(7-chloro-3-(difluoromethyl)-8-fluoroquinolin-4-yl)-3-methylpiperidin-4-yl)(3-(trifluoromethyl)-5,6-dihydro-[1,2,4]triazolo[4,3-a]pyrazin-7(8H)-yl)methanone]
12 | 1.2 | COc1cnc2c(N3CC[C@H](C(=O)N4CCn5c(nnc5C(F)(F)F)C4)[C@H](C)C3)c(Cl)cnc2c1 [Example 8, ((3S,4S)-1-(3-chloro-7-methoxy-1,5-naphthyridin-4-yl)-3-methylpiperidin-4-yl)(3-(trifluoromethyl)-5,6-dihydro-[1,2,4]triazolo[4,3-a]pyrazin-7(8H)-yl)methanone]
